# Assay results published in US10597388B2, “Pyridazinone herbicides” (FMC CORPORATION, priority 2014, dated 2020).
# What was measured:
# Experiment in all cases: Test C greenhouse herbicide test, pre- and postemergence
# Format in all cases: in vivo
# [1] = system: blackgrass (Alopecurus myosuroides)
# How it was run: (§1)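 Greenhouse pots; pre-em on seeded loam:sand blend, post-em on 2–18 cm plants (1–4 leaf) in sphagnum peat/vermiculite medium. Formulation: non-phytotoxic solvent + surfactant. Read-out: visual % control (0–100) vs controls at 13–15 d.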
# [2] = system: barnyardgrass (Echinochloa crus-galli)
# How it was run: as §1
# [3] = system: velvetleaf (Abutilon theophrasti)
# How it was run: as §1
# [4] = system: ryegrass, Italian (Italian ryegrass, Lolium multiflorum)
# How it was run: as §1
# [5] = system: pigweed (Amaranthus retroflexus)
# How it was run: as §1
# [6] = system: waterhemp (common waterhemp, Amaranthus rudis)
# How it was run: as §1
# corn (Zea mays) = system: corn (Zea mays)
# How it was run: as §1
# [7] = system: johnsongrass (Sorghum halepense)
# How it was run: as §1
# [8] = system: ragweed (common ragweed, Ambrosia elatior)
# How it was run: as §1
# soybean (Glycine max) = system: soybean (Glycine max)
# How it was run: as §1
# [9] = system: nutsedge, yellow (yellow nutsedge, Cyperus esculentus)
# How it was run: as §1
# [10] = system: lambsquarters (Chenopodium album)
# How it was run: as §1
# [11] = system: galium (catchweed bedstraw, Galium aparine); conditions: for Plant response rating, Galium: Postemergence
# How it was run: as §1
# [12] = system: morningglory (Ipomoea coccinea)
# How it was run: as §1
# [13] = system: foxtail, giant (giant foxtail, Setaria faberii)
# How it was run: as §1
# [14] = system: wheat (winter wheat, Triticum aestivum)
# How it was run: as §1
# [15] = Postemergence, 31 g ai/ha, 0 to 100 scale (0 no effect, 100 complete control)
# [16] = Postemergence, 125 g ai/ha, scale 0 to 100, 0 is no effect, 100 is complete control
# [17] = Postemergence, 250 g ai/ha, scale 0 to 100, 0 no effect, 100 complete control, 13 to 15 d
# [18] = Preemergence, 31 g ai/ha, scale 0 to 100, 0 is no effect, 100 is complete control
# [19] = Preemergence, 62 g ai/ha, scale 0 to 100, 0 is no effect, 100 is complete control
# [20] = Preemergence, 125 g ai/ha, scale 0 to 100, 0 is no effect, 100 is complete control
# [21] = Preemergence, 250 g ai/ha, scale 0 to 100 (0 no effect, 100 complete control)
# [22] = postemergence, 62 g ai/ha, scale 0 to 100, 0 no effect, 100 complete control
compound,measurement,setting,value
CC(=O)Oc1c(C)nn(C)c(=O)c1-c1ccc(F)c2ccccc12 [Compound 90],Blackgrass plant response rating,[1]; [15],10
same,"Plant response rating, Blackgrass",[1]; [16],25
same,"Plant response rating, Blackgrass",[1]; [17],40
same,"Plant response rating, Blackgrass",[1]; [18],25
same,"Plant response rating, Blackgrass",[1]; [19],40
same,"Plant response rating, Blackgrass",[1]; [20],50
same,Blackgrass plant response rating,[1]; [21],55
same,Blackgrass plant response rating,[1]; [22],15
same,Barnyardgrass plant response rating,[2]; [15],30
same,"Plant response rating, Barnyardgrass",[2]; [16],50
same,"Plant response rating, Barnyardgrass",[2]; [17],70
same,"Plant response rating, Barnyardgrass",[2]; [18],35
same,"Plant response rating, Barnyardgrass",[2]; [19],65
same,"Plant response rating, Barnyardgrass",[2]; [20],75
same,Barnyardgrass plant response rating,[2]; [21],95
same,Barnyardgrass plant response rating,[2]; [22],35
same,"Plant response rating, Velvetleaf",[3]; [16],98
same,"Plant response rating, Velvetleaf",[3]; [17],98
same,"Plant response rating, Velvetleaf",[3]; [18],85
same,"Plant response rating, Velvetleaf",[3]; [19],90
same,"Plant response rating, Velvetleaf",[3]; [20],95
same,Velvetleaf plant response rating,[3]; [21],95
same,Velvetleaf plant response rating,[3]; [22],75
same,"Plant response rating, Ryegrass, Italian",[4]; [16],90
same,"Plant response rating, Ryegrass, Italian",[4]; [17],90
same,"Plant response rating, Ryegrass, Italian",[4]; [18],90
same,"Plant response rating, Ryegrass, Italian",[4]; [19],95
same,"Plant response rating, Ryegrass, Italian",[4]; [20],95
same,"Ryegrass, Italian plant response rating",[4]; [21],95
same,"Ryegrass, Italian plant response rating",[4]; [22],90
same,"Plant response rating, Pigweed",[5]; [16],95
same,"Plant response rating, Pigweed",[5]; [17],100
same,"Plant response rating, Pigweed",[5]; [18],100
same,"Plant response rating, Pigweed",[5]; [19],100
same,"Plant response rating, Pigweed",[5]; [20],100
same,Pigweed plant response rating,[5]; [21],100
same,Pigweed plant response rating,[5]; [22],80
same,"Plant response rating, Waterhemp",[6]; [16],100
same,"Plant response rating, Waterhemp",[6]; [17],100
same,"Plant response rating, Waterhemp",[6]; [18],75
same,"Plant response rating, Waterhemp",[6]; [19],90
same,"Plant response rating, Waterhemp",[6]; [20],100
same,Waterhemp plant response rating,[6]; [21],100
same,Waterhemp plant response rating,[6]; [22],100
same,Corn plant response rating,corn (Zea mays); [15],5
same,"Plant response rating, Corn",corn (Zea mays); [16],10
same,"Plant response rating, Corn",corn (Zea mays); [17],25
same,"Plant response rating, Corn",corn (Zea mays); [18],0
same,"Plant response rating, Corn",corn (Zea mays); [19],0
same,"Plant response rating, Corn",corn (Zea mays); [20],5
same,Corn plant response rating,corn (Zea mays); [21],30
same,Corn plant response rating,corn (Zea mays); [22],10
same,"Plant response rating, Johnsongrass",[7]; [16],10
same,"Plant response rating, Johnsongrass",[7]; [17],20
same,"Plant response rating, Johnsongrass",[7]; [18],50
same,"Plant response rating, Johnsongrass",[7]; [19],55
same,"Plant response rating, Johnsongrass",[7]; [20],60
same,Johnsongrass plant response rating,[7]; [21],65
same,Johnsongrass plant response rating,[7]; [22],10
same,"Plant response rating, Ragweed",[8]; [16],95
same,"Plant response rating, Ragweed",[8]; [17],100
same,"Plant response rating, Ragweed",[8]; [18],80
same,"Plant response rating, Ragweed",[8]; [19],90
same,"Plant response rating, Ragweed",[8]; [20],85
same,Ragweed plant response rating,[8]; [21],95
same,Ragweed plant response rating,[8]; [22],85
same,"Plant response rating, Soybean",soybean (Glycine max); [16],55
same,"Plant response rating, Soybean",soybean (Glycine max); [17],70
same,"Plant response rating, Soybean",soybean (Glycine max); [18],0
same,"Plant response rating, Soybean",soybean (Glycine max); [19],0
same,"Plant response rating, Soybean",soybean (Glycine max); [20],10
same,Soybean plant response rating,soybean (Glycine max); [21],100
same,Soybean plant response rating,soybean (Glycine max); [22],50
same,"Plant response rating, Nutsedge, Yellow",[9]; [16],90
same,"Plant response rating, Nutsedge, Yellow",[9]; [17],85
same,"Plant response rating, Nutsedge, Yellow",[9]; [18],55
same,"Plant response rating, Nutsedge, Yellow",[9]; [19],45
same,"Plant response rating, Nutsedge, Yellow",[9]; [20],85
same,"Nutsedge, Yellow plant response rating",[9]; [21],90
same,"Nutsedge, Yellow plant response rating",[9]; [22],80
same,"Plant response rating, Lambsquarters",[10]; [16],98
same,"Plant response rating, Lambsquarters",[10]; [17],100
same,"Plant response rating, Lambsquarters",[10]; [18],75
same,"Plant response rating, Lambsquarters",[10]; [19],80
same,"Plant response rating, Lambsquarters",[10]; [20],85
same,Lambsquarters plant response rating,[10]; [21],100
same,Lambsquarters plant response rating,[10]; [22],98
same,"Plant response rating, Galium","[11]; 125 g ai/ha, scale 0 to 100, 0 is no effect, 100 is complete control",95
same,"Plant response rating, Galium","[11]; 250 g ai/ha, scale 0 to 100, 0 no effect, 100 complete control, 13 to 15 d",95
same,Galium plant response rating,[11]; [22],95
same,"Plant response rating, Morningglory",[12]; [16],100
same,"Plant response rating, Morningglory",[12]; [17],100
same,"Plant response rating, Morningglory",[12]; [18],85
same,"Plant response rating, Morningglory",[12]; [19],85
same,"Plant response rating, Morningglory",[12]; [20],98
same,Morningglory plant response rating,[12]; [21],98
same,Morningglory plant response rating,[12]; [22],100
same,"Plant response rating, Foxtail, Giant",[13]; [16],55
same,"Plant response rating, Foxtail, Giant",[13]; [17],75
same,"Plant response rating, Foxtail, Giant",[13]; [18],75
same,"Plant response rating, Foxtail, Giant",[13]; [19],75
same,"Plant response rating, Foxtail, Giant",[13]; [20],90
same,"Foxtail, Giant plant response rating",[13]; [21],95
same,"Foxtail, Giant plant response rating",[13]; [22],25
same,"Plant response rating, Wheat",[14]; [16],10
same,"Plant response rating, Wheat",[14]; [17],30
same,"Plant response rating, Wheat",[14]; [18],5
same,"Plant response rating, Wheat",[14]; [19],0
same,"Plant response rating, Wheat",[14]; [20],35
same,Wheat plant response rating,[14]; [21],40
same,Wheat plant response rating,[14]; [22],10
